# According to patent US20140155389A1, “BICYCLIC INHIBITORS OF ALK” (ABBVIE INC., priority 2011, published 2014):
# pKi: −log10 of the molar value.
# Target: T1, ALK (Homo sapiens, UniProt Q9UM73)
# T1 construct: purchased Millipore
# Assay: ALK kinase assay (HTRF)
# Assay type: biochemical
# Settings: apparent Ki from IC50 by Cheng-Prusoff; ALK (Millipore) 3 nM or 4 nM, 50 μM ATP, 1 h at room temperature; read-out: HTRF_ALK Human - Ki
# T1 sequence (Q9UM73 19-1620): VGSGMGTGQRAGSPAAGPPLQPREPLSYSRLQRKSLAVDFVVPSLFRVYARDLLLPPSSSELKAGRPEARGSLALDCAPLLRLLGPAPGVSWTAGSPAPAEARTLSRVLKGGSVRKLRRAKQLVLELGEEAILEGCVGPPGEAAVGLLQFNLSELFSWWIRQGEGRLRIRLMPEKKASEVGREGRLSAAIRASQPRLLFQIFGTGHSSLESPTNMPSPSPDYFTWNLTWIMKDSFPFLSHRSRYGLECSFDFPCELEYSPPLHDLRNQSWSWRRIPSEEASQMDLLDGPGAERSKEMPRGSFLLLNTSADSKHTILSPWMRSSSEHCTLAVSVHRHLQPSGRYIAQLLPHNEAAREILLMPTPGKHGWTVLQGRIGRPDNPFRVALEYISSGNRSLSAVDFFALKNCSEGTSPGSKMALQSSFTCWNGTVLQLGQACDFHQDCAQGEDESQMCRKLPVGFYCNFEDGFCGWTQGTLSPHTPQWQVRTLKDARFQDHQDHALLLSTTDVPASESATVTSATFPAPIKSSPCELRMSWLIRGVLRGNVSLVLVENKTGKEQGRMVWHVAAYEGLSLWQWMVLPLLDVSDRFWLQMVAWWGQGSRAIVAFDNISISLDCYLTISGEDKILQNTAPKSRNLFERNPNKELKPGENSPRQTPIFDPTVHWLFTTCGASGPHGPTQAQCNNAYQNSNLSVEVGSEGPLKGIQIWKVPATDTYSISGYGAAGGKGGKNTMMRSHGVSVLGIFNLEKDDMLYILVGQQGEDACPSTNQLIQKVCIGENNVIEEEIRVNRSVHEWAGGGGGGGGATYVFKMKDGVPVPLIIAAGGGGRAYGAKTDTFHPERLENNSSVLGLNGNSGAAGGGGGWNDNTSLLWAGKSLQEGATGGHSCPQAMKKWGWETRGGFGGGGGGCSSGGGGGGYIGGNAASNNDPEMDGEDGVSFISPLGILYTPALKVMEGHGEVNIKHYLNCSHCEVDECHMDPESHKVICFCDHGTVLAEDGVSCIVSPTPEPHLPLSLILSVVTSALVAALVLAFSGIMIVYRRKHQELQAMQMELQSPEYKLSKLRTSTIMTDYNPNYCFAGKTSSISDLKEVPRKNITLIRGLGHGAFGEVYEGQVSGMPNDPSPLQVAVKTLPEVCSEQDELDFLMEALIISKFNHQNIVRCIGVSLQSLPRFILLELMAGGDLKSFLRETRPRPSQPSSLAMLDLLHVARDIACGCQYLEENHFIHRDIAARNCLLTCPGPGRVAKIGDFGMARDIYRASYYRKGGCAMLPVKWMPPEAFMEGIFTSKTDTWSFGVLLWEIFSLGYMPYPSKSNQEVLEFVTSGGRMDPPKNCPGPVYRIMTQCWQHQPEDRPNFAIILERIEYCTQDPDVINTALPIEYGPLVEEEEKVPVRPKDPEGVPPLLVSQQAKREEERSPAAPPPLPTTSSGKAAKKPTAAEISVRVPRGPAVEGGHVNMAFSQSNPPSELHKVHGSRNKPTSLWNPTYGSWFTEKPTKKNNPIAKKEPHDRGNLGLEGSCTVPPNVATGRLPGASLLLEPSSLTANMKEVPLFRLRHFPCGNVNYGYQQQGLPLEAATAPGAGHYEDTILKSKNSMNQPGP
row,SMILES,pKi
1,"COc1cc(N2CCNCC2)ccc1Nc1nc(Nc2c(Cl)cc(F)cc2Cl)cc2cnnc(O)c12 [Example 35, 7-[(2,6-dichloro-4-fluorophenyl)amino]-5-{[2-methoxy-4-(piperazin-1-yl)phenyl]amino}pyrido[3,4-d]pyridazin-4-ol]",9.00
2,"COCCNc1cc2cnnc(O)c2c(Nc2ccc(N3CCNCC3)cc2OC)n1 [Example 36, 7-[(2-methoxyethyl)amino]-5-{[2-methoxy-4-(piperazin-1-yl)phenyl]amino}pyrido[3,4-d]pyridazin-4-ol]",7.59
3,"COc1cc(N2CCNCC2)ccc1Nc1nc(Nc2cccc(F)c2F)cc2cn[nH]c(=O)c12 [Example 37, 7-[(2,3-difluorophenyl)amino]-5-{[2-methoxy-4-(piperazin-1-yl)phenyl]amino}pyrido[3,4-d]pyridazin-4(3H)-one]",8.52
4,"COc1cc(N2CCNCC2)ccc1Nc1nc(NCc2ccco2)cc2cnnc(O)c12 [Example 38, 7-[(furan-2-ylmethyl)amino]-5-{[2-methoxy-4-(piperazin-1-yl)phenyl]amino}pyrido[3,4-d]pyridazin-4-ol]",7.80
5,"COc1cc(N2CCNCC2)ccc1Nc1nc(N2CCCCC2)cc2cn[nH]c(=O)c12 [Example 39, 5-{[2-methoxy-4-(piperazin-1-yl)phenyl]amino}-7-(piperidin-1-yl)pyrido[3,4-d]pyridazin-4(3H)-one]",8.15
6,"COc1cc(N2CCNCC2)ccc1Nc1nc(NCc2ccccc2)cc2cn[nH]c(=O)c12 [Example 40, 7-(benzylamino)-5-{[2-methoxy-4-(piperazin-1-yl)phenyl]amino}pyrido[3,4-d]pyridazin-4(3H)-one]",7.44
7,"COc1cc(N2CCNCC2)ccc1Nc1nc(-c2ccccc2)cc2cn[nH]c(=O)c12 [Example 41, 5-{[2-methoxy-4-(piperazin-1-yl)phenyl]amino}-7-phenylpyrido[3,4-d]pyridazin-4(3H)-one]",7.55
8,"O=c1[nH]ncc2cc(Cc3c(Cl)cccc3Cl)nc(Nc3c(F)cc(N4CCNCC4)cc3F)c12 [Example 42, 7-(2,6-dichlorobenzyl)-5-{[2,6-difluoro-4-(piperazin-1-yl)phenyl]amino}pyrido[3,4-d]pyridazin-4(3H)-one]",7.60
9,"COc1cc(N2CCNCC2)ccc1Nc1nc(Nc2ccccn2)cc2cn[nH]c(=O)c12 [Example 43, 5-{[2-methoxy-4-(piperazin-1-yl)phenyl]amino}-7-(pyridin-2-ylamino)pyrido[3,4-d]pyridazin-4(3H)-one]",7.82
10,"COc1cc(N2CCNCC2)ccc1Nc1nc(Nc2cccnc2)cc2cn[nH]c(=O)c12 [Example 44, 5-{[2-methoxy-4-(piperazin-1-yl)phenyl]amino}-7-(pyridin-3-ylamino)pyrido[3,4-d]pyridazin-4(3H)-one]",7.89
11,"COc1cc(N2CCNCC2)ccc1Nc1nc(NCCN(C)C)cc2cn[nH]c(=O)c12 [Example 45, 7-{[2-(dimethylamino)ethyl]amino}-5-{[2-methoxy-4-(piperazin-1-yl)phenyl]amino}pyrido[3,4-d]pyridazin-4(3H)-one]",7.29
12,"COc1cc(N2CCNCC2)ccc1Nc1nc(NC2CCCCC2)cc2cn[nH]c(=O)c12 [Example 46, 7-(cyclohexylamino)-5-{[2-methoxy-4-(piperazin-1-yl)phenyl]amino}pyrido[3,4-d]pyridazin-4(3H)-one]",8.52
13,"COc1cc(N2CCNCC2)ccc1Nc1nc(NCCc2ccccn2)cc2cnnc(O)c12 [Example 47, 5-{[2-methoxy-4-(piperazin-1-yl)phenyl]amino}-7-{[2-(pyridin-2-yl)ethyl]amino}pyrido[3,4-d]pyridazin-4-ol]",7.28
14,"COc1cc(N2CCNCC2)ccc1Nc1nc(Nc2ccccc2F)cc2cn[nH]c(=O)c12 [Example 48, 7-[(2-fluorophenyl)amino]-5-{[2-methoxy-4-(piperazin-1-yl)phenyl]amino}pyrido[3,4-d]pyridazin-4(3H)-one]",8.40
15,"COc1cc(N2CCNCC2)ccc1Nc1nc(Nc2c(C)cccc2C)cc2cn[nH]c(=O)c12 [Example 49, 7-[(2,6-dimethylphenyl)amino]-5-{[2-methoxy-4-(piperazin-1-yl)phenyl]amino}pyrido[3,4-d]pyridazin-4(3H)-one]",9.00
16,"COc1cc(N2CCNCC2)ccc1Nc1nc(Nc2ncccc2Cl)cc2cn[nH]c(=O)c12 [Example 50, 7-[(3-chloropyridin-2-yl)amino]-5-{[2-methoxy-4-(piperazin-1-yl)phenyl]amino}pyrido[3,4-d]pyridazin-4(3H)-one]",8.05
17,"COc1cc(N2CCNCC2)ccc1Nc1nc(Nc2cccc(Cl)c2Cl)cc2cn[nH]c(=O)c12 [Example 51, 7-[(2,3-dichlorophenyl)amino]-5-{[2-methoxy-4-(piperazin-1-yl)phenyl]amino}pyrido[3,4-d]pyridazin-4(3H)-one]",8.70
18,"COc1cc(N2CCNCC2)ccc1Nc1nc(Nc2c(F)cc(F)cc2F)cc2cn[nH]c(=O)c12 [Example 52, 5-{[2-methoxy-4-(piperazin-1-yl)phenyl]amino}-7-[(2,4,6-trifluorophenyl)amino]pyrido[3,4-d]pyridazin-4(3H)-one]",8.70

row,SMILES,pKi
1,"COc1cc(N2CCNCC2)ccc1Nc1nc(Nc2ccc(F)c(F)c2F)cc2cn[nH]c(=O)c12 [Example 53, 5-{[2-methoxy-4-(piperazin-1-yl)phenyl]amino}-7-[(2,3,4-trifluorophenyl)amino]pyrido[3,4-d]pyridazin-4(3H)-one]",8.40
2,"COc1cc(N2CCNCC2)ccc1Nc1nc(Nc2cccc(Cl)c2F)cc2cnnc(O)c12 [Example 54, 7-[(3-chloro-2-fluorophenyl)amino]-5-{[2-methoxy-4-(piperazin-1-yl)phenyl]amino}pyrido[3,4-d]pyridazin-4-ol]",8.40
3,"COc1cc(N2CCNCC2)ccc1Nc1nc(NC2CCOCC2)cc2cnnc(O)c12 [Example 55, 5-{[2-methoxy-4-(piperazin-1-yl)phenyl]amino}-7-(tetrahydro-2H-pyran-4-ylamino)pyrido[3,4-d]pyridazin-4-ol]",8.22
4,"COc1cc(N2CCNCC2)ccc1Nc1nc(Nc2nccs2)cc2cn[nH]c(=O)c12 [Example 56, 5-{[2-methoxy-4-(piperazin-1-yl)phenyl]amino}-7-(1,3-thiazol-2-ylamino)pyrido[3,4-d]pyridazin-4(3H)-one]",8.30
5,"O=c1[nH]ncc2cc(Cc3c(Cl)cccc3Cl)nc(Nc3ccc(N4CCNCC4)cc3Cl)c12 [Example 57, 5-{[2-chloro-4-(piperazin-1-yl)phenyl]amino}-7-(2,6-dichlorobenzyl)pyrido[3,4-d]pyridazin-4(3H)-one]",8.70
6,"COc1cc(N2CCNCC2)ccc1Nc1nc(NC2CCN(C)CC2)cc2cn[nH]c(=O)c12 [Example 58, 5-{[2-methoxy-4-(piperazin-1-yl)phenyl]amino}-7-[(1-methylpiperidin-4-yl)amino]pyrido[3,4-d]pyridazin-4(3H)-one]",8.40
7,"COc1c(Nc2nc(Cc3c(Cl)cccc3Cl)cc3cnnc(O)c23)ccc(N2CCNCC2)c1F [Example 59, 7-(2,6-dichlorobenzyl)-5-{[3-fluoro-2-methoxy-4-(piperazin-1-yl)phenyl]amino}pyrido[3,4-d]pyridazin-4-ol]",8.40
8,"COc1cc(N2CCNCC2)ccc1Nc1nc(Nc2ccncc2Cl)cc2cn[nH]c(=O)c12 [Example 60, 7-[(3-chloropyridin-4-yl)amino]-5-{[2-methoxy-4-(piperazin-1-yl)phenyl]amino}pyrido[3,4-d]pyridazin-4(3H)-one]",8.52
9,"O=c1[nH]ncc2cc(Cc3c(Cl)cccc3Cl)nc(Nc3ccc(N4CCNCC4)cc3Br)c12 [Example 61, 5-{[2-bromo-4-(piperazin-1-yl)phenyl]amino}-7-(2,6-dichlorobenzyl)pyrido[3,4-d]pyridazin-4(3H)-one]",8.70
10,"COc1cc(N2CCNCC2)ccc1Nc1nc(Oc2ccccc2Cl)cc2cn[nH]c(=O)c12 [Example 62, 7-(2-chlorophenoxy)-5-{[2-methoxy-4-(piperazin-1-yl)phenyl]amino}pyrido[3,4-d]pyridazin-4(3H)-one]",8.70
11,"COc1cc(N2CCNCC2)ccc1Nc1nc(Oc2c(Cl)cccc2Cl)cc2cn[nH]c(=O)c12 [Example 63, 7-(2,6-dichlorophenoxy)-5-{[2-methoxy-4-(piperazin-1-yl)phenyl]amino}pyrido[3,4-d]pyridazin-4(3H)-one]",9.00
12,"Oc1nncc2cc(Cc3c(Cl)cccc3Cl)nc(Nc3ccc(N4CCNCC4)cc3OC(F)(F)F)c12 [Example 64, 7-(2,6-dichlorobenzyl)-5-{[4-(piperazin-1-yl)-2-(trifluoromethoxy)phenyl]amino}pyrido[3,4-d]pyridazin-4-ol]",7.68
13,"COc1cc(N2CCNCC2)ccc1Nc1nc(Nc2c(F)ccc(Cl)c2Cl)cc2cn[nH]c(=O)c12 [Example 65, 7-[(2,3-dichloro-6-fluorophenyl)amino]-5-{[2-methoxy-4-(piperazin-1-yl)phenyl]amino}pyrido[3,4-d]pyridazin-4(3H)-one]",9.00
14,"COc1cc(N2CCN3CCCC3C2)ccc1Nc1nc(Cc2c(Cl)cccc2Cl)cc2cn[nH]c(=O)c12 (centres unmarked) [Example 66, 7-(2,6-dichlorobenzyl)-5-{[4-(hexahydropyrrolo[1,2-a]pyrazin-2(1H)-yl)-2-methoxyphenyl]amino}pyrido[3,4-d]pyridazin-4(3H)-one]",8.00
15,"COc1cc(N2CCNCC2)ccc1Nc1nc(Nc2ccc(F)c(Cl)c2Cl)cc2cnnc(O)c12 [Example 67, 7-[(2,3-dichloro-4-fluorophenyl)amino]-5-{[2-methoxy-4-(piperazin-1-yl)phenyl]amino}pyrido[3,4-d]pyridazin-4-ol]",8.70
16,"COc1cc(N2CCNCC2)ccc1Nc1cc(Nc2c(Cl)cccc2Cl)nc2cn[nH]c(=O)c12 [Example 68, 2-[(2,6-dichlorophenyl)amino]-4-{[2-methoxy-4-(piperazin-1-yl)phenyl]amino}pyrido[2,3-d]pyridazin-5(6H)-one]",8.70
17,"Cc1c(Nc2nc(Cc3c(Cl)cccc3Cl)cc3cn[nH]c(=O)c23)ccc(N2CCNCC2)c1C [Example 69, 7-(2,6-dichlorobenzyl)-5-{[2,3-dimethyl-4-(piperazin-1-yl)phenyl]amino}pyrido[3,4-d]pyridazin-4(3H)-one]",9.00
